Values of other authors, collected in patent US7632832B2, “CGRP receptor antagonists” (Merck & Co., Inc., priority 2005, dated 2009).

System: CGRP
Settings: marmoset, electrical stimulation of the trigeminal ganglion (Doods et al. 2000)

## NCCCC[C@H](NC(=O)[C@@H](Cc1cc(Br)c(O)c(Br)c1)NC(=O)N1CCC(N2Cc3ccccc3NC2=O)CC1)C(=O)N1CCN(c2ccncc2)CC1 [BIBN4096BS]
  effect on increase in facial blood flow: blocked
